Assay results from US6355799B1, “Substituted benzene compounds, process for their preparation, and herbicidal and defoliant compositions containing them” (ISK Americas Incorporated, priority 1997, dated 2002).

Assays:
Assay type in all cases: in vivo
[1] = test system: upland rice (Oryza sp., var. Tebonnet, RICE); experiment: Post-emerge test, crop safety; conditions: post-emerge, 14 days after application, rating scale 0-100
Procedure, shortened: (§1)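 Each test used a mechanized track sprayer delivering 187 l/ha of acetone solution at 15–1000 g ai/ha. Post-emerge foliage at 2–3 leaves was treated with added 0.25% v/v non-ionic surfactant and bottom-watered only. Injury was assessed on day 14, where 100 means total kill.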

[2] = test system: field corn (Zea mays L., var. Dekalb 535, CORN); experiment: Post-emerge test, crop safety; conditions: post-emerge, 14 days after application, rating scale 0-100
Procedure, shortened: as §1

[3] = test system: upland rice (Oryza sp., var. Tebonnet, RICE); experiment: Pre-emerge test, crop safety; conditions: for phytotoxicity rating RICE (crop damage): pre-emerge, 14 days after application, scale 0-100; for Pre-emerge Herbicidal Activity RICE: crop damage rating 0-100, 14 days after application
Procedure, shortened: (§2)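 Sandy loam pots; pre-emerge: sown 1 d pre-spray, surface-watered after, then bottom-watered. Post-emerge: sown 8–21 d before, 2–3 leaf stage, + 0.25% v/v NIS, bottom-watered. Acetone, 187 l/ha track spray, 15–1000 g ai/ha. 0–100 injury score, day 14.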

[4] = test system: field corn (Zea mays L., var. Dekalb 535, CORN); experiment: Pre-emerge test, crop safety; conditions: for phytotoxicity rating CORN (crop damage): pre-emerge, 14 days after application, scale 0-100; for Pre-emerge Herbicidal Activity CORN: crop damage rating 0-100, 14 days after application
Procedure, shortened: as §2

[5] = test system: redroot pigweed (Amaranthus retroflexus, AMARE); experiment: Pre-emerge test, greenhouse herbicide activity screening; conditions: for phytotoxicity rating AMARE: pre-emerge, 14 days after application, scale 0-100; for Pre-emerge Herbicidal Activity AMARE: phytotoxicity rating 0-100, 14 days after application
Procedure, shortened: (§3)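 Plants grown in 10 cm pots of sandy loam mix received acetone-dissolved compounds through a moving flat-fan nozzle. Doses ranged from 15 to 1000 g ai/ha. Pre-emerge pots were seeded one day earlier, post-emerge pots 8–21 days earlier. Fourteen days on, each pot was graded 0–100 for damage.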

[6] = test system: sicklepod (Cassia obtusifolia, CASOB); experiment: Post-emerge test, greenhouse herbicide activity screening; conditions: post-emerge, 14 days after application, rating scale 0-100
Procedure, shortened: (§4)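 Applied at 15–1000 g ai/ha from acetone in 187 l/ha spray volume. Post-emergence applications included 0.25% v/v non-ionic surfactant and reached plants sown 8–21 days before. Pre-emergence applications were incorporated by surface watering. Efficacy or crop damage was rated on a 0–100 scale after 14 days.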

[7] = test system: green foxtail (Setaria viridis, SETVI); experiment: as above; conditions: post-emerge, 14 days after application, rating scale 0-100
Procedure, shortened: as §4

[8] = test system: johnsongrass (Sorghum halepense, SORHA); experiment: as above; conditions: post-emerge, 14 days after application, rating scale 0-100
Procedure, shortened: as §4

[9] = test system: large crabgrass (Digitaria sanguinalis, DIGSA); experiment: as above; conditions: post-emerge, 14 days after application, rating scale 0-100
Procedure, shortened: as §4

[10] = test system: velvetleaf (Abutilon theophrasti, ABUTH); experiment: as above; conditions: post-emerge, 14 days after application, rating scale 0-100
Procedure, shortened: as §4

[11] = test system: lambsquarters (Chenopodium album, CHEAL); experiment: as above; conditions: post-emerge, 14 days after application, rating scale 0-100
Procedure, shortened: as §4

[12] = test system: barnyardgrass (Echinochloa crus-galli, ECHCG); experiment: as above; conditions: post-emerge, 14 days after application, rating scale 0-100
Procedure, shortened: as §4

[13] = test system: redroot pigweed (Amaranthus retroflexus, AMARE); experiment: as above; conditions: post-emerge, 14 days after application
Procedure, shortened: as §4

[14] = test system: ivyleaf morningglory (Ipomoea hederacea, IPOHE); experiment: as above; conditions: post-emerge, 14 days after application, rating scale 0-100
Procedure, shortened: as §4

[15] = test system: sicklepod (Cassia obtusifolia, CASOB); experiment: Pre-emerge test, greenhouse herbicide activity screening; conditions: for phytotoxicity rating CASOB: pre-emerge, 14 days after application, scale 0-100; for Pre-emerge Herbicidal Activity CASOB: phytotoxicity rating 0-100, 14 days after application
Procedure, shortened: as §3

[16] = test system: green foxtail (Setaria viridis, SETVI); experiment: as above; conditions: for phytotoxicity rating SETVI: pre-emerge, 14 days after application, scale 0-100; for Pre-emerge Herbicidal Activity SETVI: phytotoxicity rating 0-100, 14 days after application
Procedure, shortened: as §3

[17] = test system: johnsongrass (Sorghum halepense, SORHA); experiment: as above; conditions: for phytotoxicity rating SORHA: pre-emerge, 14 days after application, scale 0-100; for Pre-emerge Herbicidal Activity SORHA: phytotoxicity rating 0-100, 14 days after application
Procedure, shortened: as §3

[18] = test system: large crabgrass (Digitaria sanguinalis, DIGSA); experiment: as above; conditions: for phytotoxicity rating DIGSA: pre-emerge, 14 days after application, scale 0-100; for Pre-emerge Herbicidal Activity DIGSA: phytotoxicity rating 0-100, 14 days after application
Procedure, shortened: as §3

[19] = test system: velvetleaf (Abutilon theophrasti, ABUTH); experiment: as above; conditions: for phytotoxicity rating ABUTH: pre-emerge, 14 days after application, scale 0-100; for Pre-emerge Herbicidal Activity ABUTH: phytotoxicity rating 0-100, 14 days after application
Procedure, shortened: as §3

[20] = test system: lambsquarters (Chenopodium album, CHEAL); experiment: as above; conditions: for phytotoxicity rating CHEAL: pre-emerge, 14 days after application, scale 0-100; for Pre-emerge Herbicidal Activity CHEAL: phytotoxicity rating 0-100, 14 days after application
Procedure, shortened: as §3

[21] = test system: barnyardgrass (Echinochloa crus-galli, ECHCG); experiment: as above; conditions: for phytotoxicity rating ECHCG: pre-emerge, 14 days after application, scale 0-100; for Pre-emerge Herbicidal Activity ECHCG: phytotoxicity rating 0-100, 14 days after application
Procedure, shortened: as §3

[22] = test system: ivyleaf morningglory (Ipomoea hederacea, IPOHE); experiment: as above; conditions: for phytotoxicity rating IPOHE: pre-emerge, 14 days after application, scale 0-100; for Pre-emerge Herbicidal Activity IPOHE: phytotoxicity rating 0-100, 14 days after application
Procedure, shortened: as §3

[23] = 250 g ai/ha, rating scale 0-100

COc1c(Br)cc(F)c(-n2c(=O)cc(C(F)(F)F)n(C)c2=O)c1NC(=O)C=Cc1ccccc1 [2-177]
RICE phytotoxicity rating (crop damage) ([1]; 63 g ai/ha): 50 | RICE phytotoxicity rating (crop damage) ([1]; 250 g ai/ha): 60 | CORN phytotoxicity rating (crop damage) ([2]; 63 g ai/ha): 15 | CORN phytotoxicity rating (crop damage) ([2]; 250 g ai/ha): 20 | phytotoxicity rating RICE (crop damage) ([3]; 63 g ai/ha): 10 | phytotoxicity rating RICE (crop damage) ([3]; 250 g ai/ha): 20 | phytotoxicity rating CORN (crop damage) ([4]; 63 g ai/ha): 0 | phytotoxicity rating CORN (crop damage) ([4]; 250 g ai/ha): 10 | phytotoxicity rating AMARE ([5]; 63 g ai/ha): 100 | phytotoxicity rating AMARE ([5]; 250 g ai/ha): 100 | CASOB phytotoxicity rating ([6]; 63 g ai/ha): 100 | CASOB phytotoxicity rating ([6]; 250 g ai/ha): 100 | SETVI phytotoxicity rating ([7]; 63 g ai/ha): 45 | SETVI phytotoxicity rating ([7]; 250 g ai/ha): 60 | SORHA phytotoxicity rating ([8]; 63 g ai/ha): 30 | SORHA phytotoxicity rating ([8]; 250 g ai/ha): 40 | DIGSA phytotoxicity rating ([9]; 63 g ai/ha): 30 | DIGSA phytotoxicity rating ([9]; 250 g ai/ha): 50 | ABUTH phytotoxicity rating ([10]; 63 g ai/ha): 100 | ABUTH phytotoxicity rating ([10]; 250 g ai/ha): 100 | CHEAL phytotoxicity rating ([11]; 63 g ai/ha): 100 | CHEAL phytotoxicity rating ([11]; 250 g ai/ha): 100 | ECHCG phytotoxicity rating ([12]; 63 g ai/ha): 20 | ECHCG phytotoxicity rating ([12]; 250 g ai/ha): 40 | AMARE phytotoxicity rating ([13]; 63 g ai/ha, rating scale 0-100): 100 | AMARE phytotoxicity rating [13, 23]: 100 | IPOHE phytotoxicity rating ([14]; 63 g ai/ha): 100 | IPOHE phytotoxicity rating ([14]; 250 g ai/ha): 100 | phytotoxicity rating CASOB ([15]; 63 g ai/ha): 0 | phytotoxicity rating CASOB ([15]; 250 g ai/ha): 40 | phytotoxicity rating SETVI ([16]; 63 g ai/ha): 40 | phytotoxicity rating SETVI ([16]; 250 g ai/ha): 70 | phytotoxicity rating SORHA ([17]; 63 g ai/ha): 0 | phytotoxicity rating SORHA ([17]; 250 g ai/ha): 30 | phytotoxicity rating DIGSA ([18]; 63 g ai/ha): 30 | phytotoxicity rating DIGSA ([18]; 250 g ai/ha): 70 | phytotoxicity rating ABUTH ([19]; 63 g ai/ha): 70 | phytotoxicity rating ABUTH ([19]; 250 g ai/ha): 100 | phytotoxicity rating CHEAL ([20]; 63 g ai/ha): 100 | phytotoxicity rating CHEAL ([20]; 250 g ai/ha): 100 | phytotoxicity rating ECHCG ([21]; 63 g ai/ha): 0 | phytotoxicity rating ECHCG ([21]; 250 g ai/ha): 40 | phytotoxicity rating IPOHE ([22]; 63 g ai/ha): 40 | phytotoxicity rating IPOHE ([22]; 250 g ai/ha): 90

Cc1ccc(OC(=O)Nc2c(C)c(Cl)cc(F)c2-n2c(=O)cc(C(F)(F)F)n(C)c2=O)cc1C [4-53]
phytotoxicity rating RICE (crop damage) ([1]; 63 g ai/ha): 30 | phytotoxicity rating RICE (crop damage) ([1]; 250 g ai/ha): 65 | phytotoxicity rating CORN (crop damage) ([2]; 63 g ai/ha): 5 | phytotoxicity rating CORN (crop damage) ([2]; 250 g ai/ha): 70 | Pre-emerge Herbicidal Activity RICE ([3]; 63 g ai/ha): 10 | Pre-emerge Herbicidal Activity RICE ([3]; 250 g ai/ha): 50 | Pre-emerge Herbicidal Activity CORN ([4]; 63 g ai/ha): 0 | Pre-emerge Herbicidal Activity CORN ([4]; 250 g ai/ha): 25 | Pre-emerge Herbicidal Activity AMARE ([5]; 63 g ai/ha): 100 | Pre-emerge Herbicidal Activity AMARE ([5]; 250 g ai/ha): 100 | phytotoxicity rating CASOB ([6]; 63 g ai/ha): 30 | phytotoxicity rating CASOB ([6]; 250 g ai/ha): 90 | phytotoxicity rating SETVI ([7]; 63 g ai/ha): 10 | phytotoxicity rating SETVI ([7]; 250 g ai/ha): 70 | phytotoxicity rating SORHA ([8]; 63 g ai/ha): 0 | phytotoxicity rating SORHA ([8]; 250 g ai/ha): 40 | phytotoxicity rating DIGSA ([9]; 63 g ai/ha): 0 | phytotoxicity rating DIGSA ([9]; 250 g ai/ha): 40 | phytotoxicity rating ABUTH ([10]; 63 g ai/ha): 100 | phytotoxicity rating ABUTH ([10]; 250 g ai/ha): 100 | phytotoxicity rating CHEAL ([11]; 63 g ai/ha): 60 | phytotoxicity rating CHEAL ([11]; 250 g ai/ha): 90 | phytotoxicity rating ECHCG ([12]; 63 g ai/ha): 0 | phytotoxicity rating ECHCG ([12]; 250 g ai/ha): 60 | phytotoxicity rating AMARE ([13]; 63 g ai/ha, rating scale 0-100 (0 no damage, 100 complete death)): 70 | phytotoxicity rating AMARE [13, 23]: 100 | phytotoxicity rating IPOHE ([14]; 63 g ai/ha): 100 | phytotoxicity rating IPOHE ([14]; 250 g ai/ha): 100 | Pre-emerge Herbicidal Activity CASOB ([15]; 63 g ai/ha): 20 | Pre-emerge Herbicidal Activity CASOB ([15]; 250 g ai/ha): 60 | Pre-emerge Herbicidal Activity SETVI ([16]; 63 g ai/ha): 80 | Pre-emerge Herbicidal Activity SETVI ([16]; 250 g ai/ha): 100 | Pre-emerge Herbicidal Activity SORHA ([17]; 63 g ai/ha): 30 | Pre-emerge Herbicidal Activity SORHA ([17]; 250 g ai/ha): 85 | Pre-emerge Herbicidal Activity DIGSA ([18]; 63 g ai/ha): 40 | Pre-emerge Herbicidal Activity DIGSA ([18]; 250 g ai/ha): 100 | Pre-emerge Herbicidal Activity ABUTH ([19]; 63 g ai/ha): 100 | Pre-emerge Herbicidal Activity ABUTH ([19]; 250 g ai/ha): 100 | Pre-emerge Herbicidal Activity CHEAL ([20]; 63 g ai/ha): 100 | Pre-emerge Herbicidal Activity CHEAL ([20]; 250 g ai/ha): 100 | Pre-emerge Herbicidal Activity ECHCG ([21]; 63 g ai/ha): 10 | Pre-emerge Herbicidal Activity ECHCG ([21]; 250 g ai/ha): 85 | Pre-emerge Herbicidal Activity IPOHE ([22]; 63 g ai/ha): 30 | Pre-emerge Herbicidal Activity IPOHE ([22]; 250 g ai/ha): 80
